In PubChem BioAssay (NCI) one finds GI50 and TGI data, which are given here for 1 compound.

Several values for one entry are separate records, joined by “and”; a condition that tells them apart may be missing. Equal entries are not always repeated.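 Five concentrations, 48 hours, 96-well plates. GI50: concentration for 50% inhibition of growth. TGI: concentration producing complete growth inhibition.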

Test systems include DMS 114 small cell lung; DMS 273 small cell lung; KM20L2 colon; M19-MEL melanoma; RXF-631 renal; SN12K1 renal; SNB-78 CNS; XF 498 CNS.
Common to all, as to test: inhibition of tumour cell growth, NCI panel, 48 h

In the case of `CC(C)CCCCCCCCCCCCC(=O)NCC(=O)NC1C(C)OC(Nc2ncnc3nc[nH]c23)C(O)C1O` (stereo not drawn), the GI50 is 1.61 nM and 14.8 nM in the test on DMS 114 small cell lung; 0.0184 nM with DMS 273 small cell lung; 0.0575 nM with KM20L2 colon; 0.861 nM in the test with M19-MEL melanoma; 0.129 nM with XF 498 CNS. Also, the TGI is 263 nM and 50.6 nM in the test with DMS 114 small cell lung; 0.586 nM in the test with DMS 273 small cell lung; 497 nM in the test with KM20L2 colon; 14 nM in the test with M19-MEL melanoma; 0.583 nM in the test with RXF-631 renal; 116 nM in the test on SN12K1 renal. In addition, the TGI in the test on SNB-78 CNS was 7.18 nM and 6.18 nM; in the test with XF 498 CNS, 0.925 nM.
